# According to US9090549B2, “1,4-naphthoquinones derivatives and therapeutic use thereof” (CENTRE NATIONAL DE LA RECHERCHE SCIENTIFIQUE (C.N.R.S.), priority 2008, dated 2015):
# Key:
# [1] = target: P. falciparum glutathione reductase (PfGR) (Plasmodium falciparum, UniProt Q94655); test: 1,4-Naphthoquinone reductase activity of P. falciparum glutathione reductase; type: biochemical; settings: for substrate behaviour from catalytic efficiencies kcat/KM: with respect to menadione; for increased catalytic efficiency (kcat/KM) with respect to menadione: relative to menadione
# Description: The reduction assay mixture consisted of 100 mM potassium phosphate buffer pH 6.9, 200 mM KCl, 1 mM EDTA and 100 μM NADPH in a total volume of 1 mL. 1,4-naphthoquinone reductase activity was determined by recording the initial velocities in the presence of increasing naphthoquinone concentrations (0-300 μM). […] For the determination of KM and Vmax values, the steady-state rates were fitted by using nonlinear regression analysis software (Kaleidagraph) to the Michaelis-Menten equation. From these values, the turnover number kcat and the catalytic efficiency kcat/KM were calculated.
# methemoglobin(Fe3+) = methemoglobin(Fe3+) (Homo sapiens, UniProt P68871+P69905); test: Redox-cycling of methemoglobin(Fe3+) into oxyhemoglobin(Fe2+) with NADPH/GR system; type: biochemical
# Text: Since FPIX(Fe^2+) is an inhibitor of hematin polymerization, compounds displaying the ability to reduce FPIX(Fe^3+) into FPIX(Fe^2+) might synergistically contribute with GR inhibition to increased oxidative stress in infected-red blood cells. To evaluate the redox-cycling activity of FPIX(Fe^3+) into FPIX(Fe^2+) we set up an assay using the naphthoquinone, the glutathione reductase/NADPH-based system to regenerate the dihydronaphthoquinone continuously and methemoglobin(Fe^3+) (MetHb). The UV-spectrum of MetHb between 300 nm and 700 nm is characterized by a maximal absorbance at 405 nm and a broad band centered at around 630 nm. […] We used 20 μM methylene blue as positive control of this redox-cycling activity.
# In an Eppendorf tube containing 6.4 mg MetHb dissolved in 885 μL GR buffer (47 mM potassium phosphate buffer pH 6.9, 200 mM KCl, 100 mM EDTA), 10 μL 20 mM P_TM25 dissolved in DMSO and 100 μL NADPH dissolved in GR buffer were added. The reaction was started by the addition of 5 μL human GR and then incubated at 37° C. In a 1 mL cuvette 20 μL of the reaction mixture was diluted with 980 μL GR buffer and a UV-spectra between 300 nm and 700 nm was done after 5 min, 10 min, 20 min and 30 min incubation time. The final concentrations in the reaction mixture were 100 μM MetHb, 200 μM P_TM25, 400 μM NADPH and […] hGR, final DMSO concentration 1%.
# Spectra were measured after 5 min (blue), 10 min (black), 20 min (green) and 30 min (red).
# [2] = test system: P. falciparum chloroquine sensitive strain 3D7; test: 3D7 growth inhibition, 3H-hypoxanthine assay; type: cell-based, Plasmodium falciparum; settings: Plasmodium falciparum, 3D7; read-out: IC50 against Pf 3D7
# Description: (§1) The IC50 values against Pf-GHA and MRC-5 were determined by using the less sensitive colorimetric NBT-based lactate dehydrogenase assay (Makler et al, Am. J. Trop. Med. Hyg. 1993, 48 (6), 739-741) based on redox-reactions.
# (§2) Parasite Cultures. […] P. falciparum in vitro culture was carried out using standard protocols (Trager et al, 1976 Science, 193, 673-675) with modifications. Briefly, parasites were maintained in tissue culture flasks in human A Rh+ erythrocytes at 5% hematocrit in RPMI 1640 supplemented with 25 mM HEPES, 24 mM NaHCO3, 0.2% (w/v) glucose, 0.03% L-glutamine, 150 μM hypoxanthine, and 0.5% Albumax II® (Invitrogen) in a 5% CO2/air mixture at 37° C., and the medium was changed daily.
# (§3) In Vitro Antiparasitic Bioassays. Drug susceptibility of P. falciparum was studied using a modified method (Cameron et al, 2004 J. Biol. Chem. 279, 31429-31439) of the protocol described previously (Desjardins et al, 1979). All assays included CQ diphosphate (Sigma, UK) as a standard and control wells with untreated infected and uninfected erythrocytes. IC50 values were derived by sigmoidal regression analysis (Microsoft Xlfit™).
# Pf-GHA = Pf-GHA growth inhibition, colorimetric NBT-based lactate dehydrogenase assay; type: cell-based; settings: Plasmodium falciparum; 72 h incubation; read-out: IC50 against Pf-GHA
# Description: as §1
# In Vitro Antiparasitic Bioassays. The strain is maintained in RPMI-1640 medium supplemented with 0.37 mM hypoxanthine, 25 mM HEPES, 25 mM NaHCO3, and 10% O^+ human serum together with 2-4% washed human O^+ erythrocytes. All cultures and assays are conducted under an atmosphere of 4% CO2, 3% O2 and 93% N2. Assays are performed in 96-well microtiter plates, each well containing 10 μL of the watery compound dilutions together with 190 μL of the malaria parasite inoculum (1% parasitaemia, 2% HCT). After 72 h incubation, plates are frozen and stored at −20° C. After thawing, 20 μL of each well is transferred into another plate together with 100 μL Malstat reagent and 20 μL of 1/1 mixture of PES (phenazine ethosulfate, 0.1 mg/mL) and NBT (Nitro Blue Tetrazolium Grade III, 2 mg/mL). Change in colour is measured spectrophotometrically at 655 nm. The results are expressed as % reduction in parasitaemia compared to control wells. Compounds are treated at 5 concentrations (64-16-4-1 and 0.25 μM or μg/mL).
# [3] = test system: P. falciparum multidrug-resistant strain Dd2; test: Dd2 growth inhibition, 3H-hypoxanthine assay; type: cell-based, Plasmodium falciparum; settings: Plasmodium falciparum, DD2, 48 h exposure then 24 h hypoxanthine; read-out: IC50 against Dd2
# Description: The IC50 was tested by standard in vitro antiproliferation assays (Desjardins et al, 1979 Antimicrob. Agents Chemother 1979, 16, 710-718). Infected erythrocytes in ring stage (0.5% parasitemia, 2.5% hematocrit) in 96-well plates were exposed to the compounds for 48 h and then to radioactive hypoxanthine for 24 h. The amount of radioactivity in precipitable material served as an index of cell proliferation.
# [4] = test system: P. falciparum chloroquine resistant strain K1; test: K1 growth inhibition, 3H-hypoxanthine assay; type: cell-based, Plasmodium falciparum; settings: Plasmodium falciparum, K1; read-out: IC50 against Pf K1
# Description: as §1, §2, §3
# P. berghei ANKA = test: In vivo 4-day suppressive test in P. berghei-infected mice; parameters: species or system Plasmodium berghei; settings: for activity on 4-day treatment: P. berghei-infected mice
# Description: The in vivo tests in the mouse model were done according to a standard protocol (Peters et al Handbook of Animal Models of Infection; Academic Press, London, 1999; pp. 756-771). […] […] For administration, compounds were freshly prepared in 10% DMSO in sterile phosphate-buffered saline the day of use. Two hours post-infection mice received the first treatment by the intraperitoneal route. Mice were further treated on days +1-3. Blood films from tail blood were prepared on day +4, and parasitaemia was determined by microscopic examination of Giemsa-stained blood films. […] […] Mice were treated and levels of parasitemia determined as described.
# [5] = target: T1, human glutathione reductase (hGR) (Homo sapiens, UniProt P00390); test: Inhibition of human glutathione reductase under steady-state conditions; type: biochemical; settings: pH 6.9, 25° C., 1 mM GSSG, 100 μM NADPH
# T1 sequence (P00390 44-522): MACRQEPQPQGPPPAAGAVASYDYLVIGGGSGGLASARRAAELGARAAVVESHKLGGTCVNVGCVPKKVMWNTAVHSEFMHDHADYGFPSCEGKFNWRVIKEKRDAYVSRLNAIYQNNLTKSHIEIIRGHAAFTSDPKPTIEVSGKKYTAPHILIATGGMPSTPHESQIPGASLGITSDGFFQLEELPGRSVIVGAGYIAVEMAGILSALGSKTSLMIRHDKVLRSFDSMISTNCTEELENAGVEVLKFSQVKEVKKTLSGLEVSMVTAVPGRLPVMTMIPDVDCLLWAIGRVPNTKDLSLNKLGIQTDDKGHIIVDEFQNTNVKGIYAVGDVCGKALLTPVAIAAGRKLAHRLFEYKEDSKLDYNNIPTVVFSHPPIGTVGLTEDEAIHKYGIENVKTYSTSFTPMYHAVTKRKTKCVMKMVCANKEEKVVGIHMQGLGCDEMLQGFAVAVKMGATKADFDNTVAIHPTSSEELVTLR
# methemoglobin(Fe3+), sequence (P69905 2-142 limits assumed): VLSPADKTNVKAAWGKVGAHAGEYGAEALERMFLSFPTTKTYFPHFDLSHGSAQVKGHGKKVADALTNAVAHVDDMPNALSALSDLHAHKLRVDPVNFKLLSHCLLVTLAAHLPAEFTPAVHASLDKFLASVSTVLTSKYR
# methemoglobin(Fe3+), sequence (P68871 2-147 limits assumed): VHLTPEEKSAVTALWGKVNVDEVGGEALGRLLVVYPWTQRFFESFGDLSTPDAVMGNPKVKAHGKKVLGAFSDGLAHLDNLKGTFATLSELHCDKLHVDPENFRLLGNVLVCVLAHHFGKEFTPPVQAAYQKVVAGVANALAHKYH
# P. falciparum glutathione reductase (PfGR), sequence (Q94655 2-500 limits assumed): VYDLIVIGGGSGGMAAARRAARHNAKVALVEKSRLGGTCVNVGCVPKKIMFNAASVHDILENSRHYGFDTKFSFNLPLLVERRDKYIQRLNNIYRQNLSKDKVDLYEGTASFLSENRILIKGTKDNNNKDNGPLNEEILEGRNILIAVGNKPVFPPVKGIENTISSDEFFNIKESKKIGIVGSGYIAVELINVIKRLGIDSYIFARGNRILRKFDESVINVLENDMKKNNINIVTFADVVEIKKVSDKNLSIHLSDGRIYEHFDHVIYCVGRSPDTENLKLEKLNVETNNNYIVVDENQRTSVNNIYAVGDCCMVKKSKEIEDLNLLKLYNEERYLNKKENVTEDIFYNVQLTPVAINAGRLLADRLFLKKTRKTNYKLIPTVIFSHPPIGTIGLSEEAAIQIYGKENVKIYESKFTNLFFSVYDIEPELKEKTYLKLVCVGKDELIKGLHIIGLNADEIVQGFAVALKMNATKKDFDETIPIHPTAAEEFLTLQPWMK
IC50 [3] [nM],Molecule,substrate behaviour from catalytic efficiencies kcat/KM [1],melting point,IC50 (Pf-GHA) [nM],other results
,"2-Methyl-3-(fluoro-benzoyl)-4a,8a-dihydro-[1,4]naphthoquinone [P_TM27]",very effective substrates,,,"Km ([1]; pH 6.9, 100 μM NADPH, 1% DMSO): 56.1 µM"
,"CN(C)c1ccc2nc3ccc(=[N+](C)C)cc-3sc2c1 [Methylene Blue, reference compound]",,,,"shift of λmax of MetHb (methemoglobin(Fe3+); 20 μM Methylene Blue, same conditions): clear shift"
791,"CC1=C(Cc2ccc(C)cc2)C(=O)C2C=CC=CC2C1=O (stereo not shown) [P_TM21, 2-Methyl-3-(4-methyl-benzyl)-4a,8a-dihydro-[1,4]naphthoquinone]",,225 °C (dec.),< 5000,IC50 [2]: 270 nM; IC50 [4]: 100 nM
< 100,"CC1=C(Cc2ccc(Br)cc2)C(=O)C2C=CC=CC2C1=O (stereo not shown) [P_TM24, 2-Methyl-3-(4-bromo-benzyl)-4a,8a-dihydro-[1,4]naphthoquinone]",,121 to 122 °C,< 5000,"decrease in parasitaemia (P. berghei ANKA; daily dose of 50 mg/kg ip, 4-day test, mice): 35.6%; activity on 4-day treatment (P. berghei ANKA; intraperitoneal): significant activity"
,"CC1=C(C(=O)c2ccc(Br)cc2)C(=O)C2C=CC=CC2C1=O (stereo not shown) [P_TM25, 2-Methyl-3-(4-bromo-benzoyl)-4a,8a-dihydro-[1,4]naphthoquinone]",very effective substrates,170 to 171 °C,,"concentration at which the shift of maximal absorbance of MetHb from 405 to 410 nm starts being visible (methemoglobin(Fe3+); 100 μM MetHb, NADPH, human GR): 50 µM; redox-cycling of methemoglobin in the presence of GR (methemoglobin(Fe3+); 200 μM P_TM25, 100 μM MetHb, 400 μM NADPH, human GR, 37° C.): can undergo redox-cycling of methemoglobin"
,CC1=C(Cc2ccc(C(F)(F)F)cc2)C(=O)c2ccccc2C1=O [P_TM29],,,,IC50 [5]: 1600 nM
,"COc1ccc(C(=O)C2=C(C)C(=O)C3C=CC=CC3C2=O)cc1 (stereo not shown) [P_TM34, 2-Methyl-3-(4-methoxy-benzoyl)-4a,8a-dihydro-[1,4]naphthoquinone]",very effective substrates,150 to 151 °C,,
< 100,"CC1=C(Cc2ccc(O)cc2)C(=O)C2C=CC=CC2C1=O (stereo not shown) [P_TM36, 2-Methyl-3-(4-hydroxy-benzyl)-4a,8a-dihydro-[1,4]naphthoquinone]",,165 to 166 °C,< 5000,activity on 4-day treatment (P. berghei ANKA; intraperitoneal): significant activity
,"CC1=C(C(=O)c2ccc(O)cc2)C(=O)C2C=CC=CC2C1=O (stereo not shown) [P_TM39, 2-Methyl-3-(4-hydroxy-benzoyl)-4a,8a-dihydro-[1,4]naphthoquinone]",very effective substrates,184 to 185 °C,< 5000,
< 100,"CC1=C(Cc2ccc(C(C)(C)C)cc2)C(=O)C2C=CC=CC2C1=O (stereo not shown) [P_TM43, 2-Methyl-3-(4-tert-butyl-benzyl)-4a,8a-dihydro-[1,4]naphthoquinone]",,60 to 61 °C,,"reduction in parasitaemia (P. berghei ANKA; daily dose of 30 mg/kg, intraperitoneal, 4-day test, mice): 43.4%; activity on 4-day treatment (P. berghei ANKA; intraperitoneal): significant activity"
,"CC1=C(C(=O)c2ccc(Br)cc2)C(=O)C2C(O)=CC=CC2C1=O (stereo not shown) [P_TM47, 3-(4-bromo-benzoyl)-5-hydroxy-2-methyl 4a,8a-dihydro-[1,4]naphthoquinone]",very effective substrates,161 to 162 °C,,increased catalytic efficiency (kcat/KM) with respect to menadione [1]: 6.3 fold
,"CC1=C(CC2=CC(=O)C=CC2=O)C(=O)C2C=CC=CC2C1=O (stereo not shown) [P_TM63, 2-(3,6-Dioxo-cyclohexa-1,4-dienylmethyl)-3-methyl-4a,8a-dihydro-[1,4]naphthoquinone]",very effective substrates,,,increased catalytic efficiency (kcat/KM) with respect to menadione [1]: 17.2 fold

Molecule,IC50 [3] [nM],substrate behaviour from catalytic efficiencies kcat/KM [1],melting point,IC50 (Pf-GHA) [nM],other results
"CC1=C(C(=O)c2ccc([N+](=O)[O-])cc2)C(=O)C2C=CC=CC2C1=O (stereo not shown) [P_TM40, 2-Methyl-3-(4-nitro-benzoyl)-4a,8a-dihydro-[1,4]naphthoquinone]",103,very effective substrates,170 to 171 °C,,increased catalytic efficiency (kcat/KM) with respect to menadione [1]: 3.9 fold
